The half-life is the time in which the quantity being followed falls by half. Read a high half-life as slow loss.

13 compounds from ChEMBL document CHEMBL3525923, “Identification of the metabolites of the antioxidant flavonoid 7-mono-O-(β-hydroxyethyl)-rutoside in mice” (Drug Metab Dispos, 2011) can be followed below.

Series [1] can be described thus: Retention time of the compound by LC-DAD-TOF-MS analysis. Format: physicochemical.
Series [2] can be described thus: Drug level in BALB/c mouse bile treated with 7-mono-O-(beta-hydroxyethyl)-rutoside assessed as relative metabolite level at 500 mg/kg, ip measured after 60 mins by LC-DAD-TOF-MS analysis. The class given is ADME, organism-based. The arrangement: dose 500 mg/kg, route intraperitoneal. As to conditions: in vivo, 1 h.
A short description of series [3]: Drug level in BALB/c mouse bile assessed as compound formation treated with monoHER at 500 mg/kg, ip measured after 60 mins by LC-DAD-TOF-MS analysis. The class given is ADME, organism-based. As to conditions: in vivo, 1 h. The arrangement: dose 500 mg/kg, route intraperitoneal.
Series [4] is described as follows: Drug metabolism in BALB/c mouse bile assessed as (2S,2'S,3S,3'S,4S,4'S,5R,5'R,6S,6'S)-6,6'-(4-(5-hydroxy-7-(2-hydroxyethoxy)-4-oxo-3-((2S,3R,4S,5S,6R)-3,4,5-trihydroxy-6-(((2R,3R,4R,5R,6S)-3,4,5-trihydroxy-6-methyltetrahydro-2H-pyran-2-yloxy)methyl)tetrahydro-2H-pyran-2-yloxy)-4H-chromen-2-yl)-1,2-phenylene)bis(oxy)bis(3,4,5-trihydroxytetrahydro-2H-pyran-2-carboxylic acid) formation at 500 mg/kg, ip measured after 60 mins by LC-DAD-TOF-MS analysis. Format: ADME, organism-based. The arrangement: dose 500 mg/kg, route intraperitoneal. As to conditions: in vivo, 1 h.

Series [5] is described as follows: Drug metabolism in BALB/c mouse bile assessed as (2S,3S,4S,5R,6S)-6-(5-(7-(carboxymethoxy)-5-hydroxy-4-oxo-3-((2S,3R,4S,5S,6R)-3,4,5-trihydroxy-6-(((2R,3R,4R,5R,6S)-3,4,5-trihydroxy-6-methyltetrahydro-2H-pyran-2-yloxy)methyl)tetrahydro-2H-pyran-2-yloxy)-4H-chromen-2-yl)-2-methoxyphenoxy)-3,4,5-trihydroxytetrahydro-2H-pyran-2-carboxylic acid formation at 500 mg/kg, ip measured after 60 mins by LC-DAD-TOF-MS analysis. As to conditions: in vivo, 1 h. The class given is ADME, organism-based. Details: dose 500 mg/kg, route intraperitoneal.

The nature of series [6]: Half life in mouse plasma. The class given is ADME, cell-free.
Series [7] in a line: Drug metabolism in BALB/c mouse bile assessed as 2-(3,4-dimethoxyphenyl)-5-hydroxy-7-(2-hydroxyethoxy)-3-((2S,3R,4S,5S,6R)-3,4,5-trihydroxy-6-(((2R,3R,4R,5R,6S)-3,4,5-trihydroxy-6-methyltetrahydro-2H-pyran-2-yloxy)methyl)tetrahydro-2H-pyran-2-yloxy)-4H-chromen-4-one formation at 500 mg/kg, ip measured after 60 mins by LC-DAD-TOF-MS analysis. The class given is ADME, organism-based. The arrangement: dose 500 mg/kg, route intraperitoneal. As to conditions: in vivo, 1 h.

Series [8] can be described thus: Drug metabolism in BALB/c mouse bile assessed as 2-(3,4-dimethoxyphenyl)-5-hydroxy-7-(2-hydroxyethoxy)-3-((2S,3R,4S,5S,6R)-3,4,5-trihydroxy-6-(hydroxymethyl)tetrahydro-2H-pyran-2-yloxy)-4H-chromen-4-one formation at 500 mg/kg, ip measured after 240 mins by LC-DAD-TOF-MS analysis. Format: ADME, organism-based. Details: dose 500 mg/kg, route intraperitoneal. As to conditions: in vivo.

Series [9] can be described thus: Drug metabolism in BALB/c mouse bile assessed as 2-(5-hydroxy-2-(3-hydroxy-4-methoxyphenyl)-4-oxo-3-((2S,3R,4S,5S,6R)-3,4,5-trihydroxy-6-(((2R,3R,4R,5R,6S)-3,4,5-trihydroxy-6-methyltetrahydro-2H-pyran-2-yloxy)methyl)tetrahydro-2H-pyran-2-yloxy)-4H-chromen-7-yloxy)acetic acid formation at 500 mg/kg, ip measured after 60 mins by LC-DAD-TOF-MS analysis. Details: dose 500 mg/kg, route intraperitoneal. The class given is ADME, organism-based. As to conditions: in vivo, 1 h.

Series [10] can be described thus: Drug metabolism in BALB/c mouse bile assessed as (S)-4-amino-5-((R)-1-(carboxymethylamino)-3-(2,3-dihydroxy-6-(5-hydroxy-7-(2-hydroxyethoxy)-4-oxo-3-((2S,3R,4S,5S,6R)-3,4,5-trihydroxy-6-(((2R,3R,4R,5R,6S)-3,4,5-trihydroxy-6-methyltetrahydro-2H-pyran-2-yloxy)methyl)tetrahydro-2H-pyran-2-yloxy)-4H-chromen-2-yl)phenylthio)-1-oxopropan-2-ylamino)-5-oxopentanoic acid formation at 500 mg/kg, ip measured after 60 mins by LC-DAD-TOF-MS analysis. Format: ADME, organism-based. The arrangement: dose 500 mg/kg, route intraperitoneal. As to conditions: in vivo, 1 h.

Series [11] is described as follows: Drug metabolism in BALB/c mouse bile assessed as (2S,3S,4S,5R,6S)-3,4,5-trihydroxy-6-(5-(5-hydroxy-7-(2-hydroxyethoxy)-4-oxo-3-((2S,3R,4S,5S,6R)-3,4,5-trihydroxy-6-(((2R,3R,4R,5R,6S)-3,4,5-trihydroxy-6-methyltetrahydro-2H-pyran-2-yloxy)methyl)tetrahydro-2H-pyran-2-yloxy)-4H-chromen-2-yl)-2-methoxyphenoxy)tetrahydro-2H-pyran-2-carboxylic acid formation at 500 mg/kg, ip measured after 60 mins by LC-DAD-TOF-MS analysis. Format: ADME, organism-based. The arrangement: dose 500 mg/kg, route intraperitoneal. As to conditions: in vivo, 1 h.

A short description of series [12]: Drug metabolism in BALB/c mouse bile assessed as 5-hydroxy-2-(3-hydroxy-4-methoxyphenyl)-7-(2-hydroxyethoxy)-3-((2S,3R,4S,5S,6R)-3,4,5-trihydroxy-6-(hydroxymethyl)tetrahydro-2H-pyran-2-yloxy)-4H-chromen-4-one formation at 500 mg/kg, ip measured after 240 mins by LC-DAD-TOF-MS analysis. The arrangement: dose 500 mg/kg, route intraperitoneal. As to conditions: in vivo. The class given is ADME, organism-based.

Series [13] can be described thus: Drug metabolism in BALB/c mouse bile assessed as (2S,3S,4S,5R,6S)-6-(5-(7-(carboxymethoxy)-5-hydroxy-4-oxo-3-((2S,3R,4S,5S,6R)-3,4,5-trihydroxy-6-(((2R,3R,4R,5R,6S)-3,4,5-trihydroxy-6-methyltetrahydro-2H-pyran-2-yloxy)methyl)tetrahydro-2H-pyran-2-yloxy)-4H-chromen-2-yl)-2-hydroxyphenoxy)-3,4,5-trihydroxytetrahydro-2H-pyran-2-carboxylic acid formation at 500 mg/kg, ip measured after 60 mins by LC-DAD-TOF-MS analysis. Details: dose 500 mg/kg, route intraperitoneal. As to conditions: in vivo, 1 h. The class given is ADME, organism-based.

The nature of series [14]: Half life in mouse heart. Format: ADME.
A short description of series [15]: Drug metabolism in BALB/c mouse bile assessed as 2-(2-(3,4-dihydroxyphenyl)-5-hydroxy-4-oxo-3-((2S,3R,4S,5S,6R)-3,4,5-trihydroxy-6-(((2R,3R,4R,5R,6S)-3,4,5-trihydroxy-6-methyltetrahydro-2H-pyran-2-yloxy)methyl)tetrahydro-2H-pyran-2-yloxy)-4H-chromen-7-yloxy)acetic acid formation at 500 mg/kg, ip measured after 60 mins by LC-DAD-TOF-MS analysis. Format: ADME, organism-based. Details: dose 500 mg/kg, route intraperitoneal. As to conditions: in vivo, 1 h.

Series [16] can be described thus: Drug metabolism in BALB/c mouse bile assessed as 5-hydroxy-2-(3-hydroxy-4-methoxyphenyl)-7-(2-hydroxyethoxy)-3-((2S,3R,4S,5S,6R)-3,4,5-trihydroxy-6-(((2R,3R,4R,5R,6S)-3,4,5-trihydroxy-6-methyltetrahydro-2H-pyran-2-yloxy)methyl)tetrahydro-2H-pyran-2-yloxy)-4H-chromen-4-one formation at 500 mg/kg, ip measured after 60 mins by LC-DAD-TOF-MS analysis. The class given is ADME, organism-based. Details: dose 500 mg/kg, route intraperitoneal. As to conditions: in vivo, 1 h.

Series [17] in a line: Drug level in BALB/c mouse bile assessed as compound formation treated with monoHER at 500 mg/kg, ip measured after 240 mins by LC-DAD-TOF-MS analysis. The class given is ADME, organism-based. The arrangement: dose 500 mg/kg, route intraperitoneal. As to conditions: in vivo, 4 h.

In turn, `C[C@@H]1O[C@@H](OC[C@H]2O[C@@H](Oc3c(-c4ccc(O[C@@H]5O[C@H](C(=O)O)[C@@H](O)[C@H](O)[C@H]5O)c(O[C@@H]5O[C@H](C(=O)O)[C@@H](O)[C@H](O)[C@H]5O)c4)oc4cc(OCCO)cc(O)c4c3=O)[C@H](O)[C@@H](O)[C@@H]2O)[C@H](O)[C@H](O)[C@H]1O` showed a Retention_time in series [1] of 7.1 min. Besides, the “Relative metabolite level in bile” value in series [2] was 0.7%. Moreover, the Drug metabolism entry in series [3] is recorded as “metabolite_detected”.
In the same order, the values of `COc1ccc(-c2oc3cc(OCC(=O)O)cc(O)c3c(=O)c2O[C@@H]2O[C@H](CO[C@@H]3O[C@@H](C)[C@H](O)[C@@H](O)[C@H]3O)[C@@H](O)[C@H](O)[C@H]2O)cc1O` are 12.3 min, 5% and “metabolite_detected”.
In the same order, the values of `COc1ccc(-c2oc3cc(OCCO)cc(O)c3c(=O)c2O[C@@H]2O[C@H](CO[C@@H]3O[C@@H](C)[C@H](O)[C@@H](O)[C@H]3O)[C@@H](O)[C@H](O)[C@H]2O)cc1O` are 11.1 min, 40% and “metabolite_detected”.
Taken in the same sequence, the figures for `C[C@@H]1O[C@@H](OC[C@H]2O[C@@H](Oc3c(-c4ccc(O)c(O)c4)oc4cc(OCC(=O)O)cc(O)c4c3=O)[C@H](O)[C@@H](O)[C@@H]2O)[C@H](O)[C@H](O)[C@H]1O` were 9.7 min, 2% and “metabolite_detected”.
In turn, `C[C@@H]1O[C@@H](OC[C@H]2O[C@@H](Oc3c(-c4ccc(O)c(O)c4SC[C@H](NC(=O)CC[C@H](N)C(=O)O)C(=O)NCC(=O)O)oc4cc(OCCO)cc(O)c4c3=O)[C@H](O)[C@@H](O)[C@@H]2O)[C@H](O)[C@H](O)[C@H]1O` gave a Retention_time in series [1] of 3.4 min. In series [2], the “Relative metabolite level in bile” value came to 0.6%. Besides, in series [3], the Drug metabolism entry is given as “metabolite_detected”.
In the same order, the values of `COc1ccc(-c2oc3cc(OCCO)cc(O)c3c(=O)c2O[C@@H]2O[C@H](CO[C@@H]3O[C@@H](C)[C@H](O)[C@@H](O)[C@H]3O)[C@@H](O)[C@H](O)[C@H]2O)cc1OC` are 14.8 min, 0.5% and “metabolite_detected”.
As to `C[C@@H]1O[C@@H](OC[C@H]2O[C@@H](Oc3c(-c4ccc(O)c(O)c4)oc4cc(OCCO)cc(O)c4c3=O)[C@H](O)[C@@H](O)[C@@H]2O)[C@H](O)[C@H](O)[C@H]1O` [MONOXERUTIN], the Drug metabolism entry in series [4], in series [5], in series [7], in [8], in series [9] and in series [10] was “metabolite_detected” in each case. The Drug metabolism result in series [11], in [12], in series [13], in series [15] and in series [16] was “metabolite_detected” in each case. This compound registered a Retention_time in [1] of 8.5 min. For the same compound, the half-life in [6] was 11.8 min; in series [14], 16.2 min. Besides, the “Relative metabolite level in bile” value in series [2] was determined as 29%.
As to `COc1ccc(-c2oc3cc(OCCO)cc(O)c3c(=O)c2O[C@@H]2O[C@H](CO[C@@H]3O[C@@H](C)[C@H](O)[C@@H](O)[C@H]3O)[C@@H](O)[C@H](O)[C@H]2O)cc1O[C@@H]1O[C@H](C(=O)O)[C@@H](O)[C@H](O)[C@H]1O`, the Retention_time in series [1] came out at 6.9 min. Also, the “Relative metabolite level in bile” value in series [2] amounted to 9%. Moreover, the Drug metabolism result in series [3] was “metabolite_detected”.
For `COc1cccc2c1C(=O)c1c(O)c3c(c(O)c1C2=O)C[C@@](O)(C(=O)CO)C[C@@H]3O[C@H]1C[C@H](N)[C@H](O)[C@H](C)O1` [DOXORUBICIN], the half-life was 756 min in series [6] and 690 min in series [14].
`COc1ccc(-c2oc3cc(OCCO)cc(O)c3c(=O)c2O[C@@H]2O[C@H](CO)[C@@H](O)[C@H](O)[C@H]2O)cc1O`: in series [1], the Retention_time turned out to be 7.6 min. In addition, in series [2], the “Relative metabolite level in bile” value is reported as 0.9%. For the same compound, the Drug metabolism entry in series [17] is “metabolite_detected”.
The compound `COc1ccc(-c2oc3cc(OCC(=O)O)cc(O)c3c(=O)c2O[C@@H]2O[C@H](CO[C@@H]3O[C@@H](C)[C@H](O)[C@@H](O)[C@H]3O)[C@@H](O)[C@H](O)[C@H]2O)cc1O[C@@H]1O[C@H](C(=O)O)[C@@H](O)[C@H](O)[C@H]1O` came in with a Retention_time in series [1] of 8.8 min. Besides, the “Relative metabolite level in bile” value in [2] is 0.4%. For the same compound, in [3], the Drug metabolism result is recorded as “metabolite_detected”.
In the same order, the values of `C[C@@H]1O[C@@H](OC[C@H]2O[C@@H](Oc3c(-c4ccc(O)c(O[C@@H]5O[C@H](C(=O)O)[C@@H](O)[C@H](O)[C@H]5O)c4)oc4cc(OCC(=O)O)cc(O)c4c3=O)[C@H](O)[C@@H](O)[C@@H]2O)[C@H](O)[C@H](O)[C@H]1O` are 7.8 min, 0.3% and “metabolite_detected”.
For `COc1ccc(-c2oc3cc(OCCO)cc(O)c3c(=O)c2O[C@@H]2O[C@H](CO)[C@@H](O)[C@H](O)[C@H]2O)cc1OC`, the Retention_time in series [1] is 12.5 min. Further, the “Relative metabolite level in bile” value in series [2] is recorded as 0.6%. The Drug metabolism result in [17] was “metabolite_detected”.
